# Reference: patent US20130252950A1, “TARGETING MTOR SUBSTRATES IN TREATING PROLIFERATIVE DISEASES” (President and Fellows of Harvard College, priority 2010, published 2013)
# “And” between values parts separate entries of the source, which are not always exact repeats. Identical values can stand only once.
# Tested on: TSC2−/− MEFs
# Assay: Rapamycin screen: SILAC quantitative phosphoproteomics (two biological replicates)
# Format: cell-based, mouse
# Procedure: Two sets of large-scale, quantitative phospho-proteomics experiments were performed to fully define how mTOR-containing complexes signal to downstream effectors (FIG. 1A). The first SILAC experiment (rapamycin screen) was performed using growth factor-deprived TSC2−/− mouse embryonic fibroblasts (MEFs).
# Two populations of TSC2−/− cells were grown in parallel, one in conventional media (“light”) and the other in media containing [^13C6^15N2]lysine and [^13C6^15N4]arginine (“heavy”) (FIG. 1A and Table 5). […] We performed two biological replicates of this experimental design with cross-labeling (swapping the labeled state of the rapamycin-treated cells, Table 5), from which a total of 14,635 (FDR=0.25%) and 32,500 (FDR=0.28%) phosphopeptides were identified, respectively. These corresponded to identification of at least 4,484 and 6,832 unique phosphorylation sites on 1,615 and 1,866 proteins, respectively. The quantitation was highly accurate (Table 5) with 93.7% of the phosphoproteome changing less than 50% in abundance between the rapamycin-treated (light) and control (heavy) cells (second biological replicate experiment, Median Log2(H/L)=−0.02 and standard deviation Log2(H/L)=0.53, FIG. 1A). […] Note that the Rapamycin screen includes two biological replicates.
# Using this criteria, several hundred peptides (corresponding to 148 and 85 proteins respectively, in the two biological replicates, Table 11) were determined to contain rapamycin-sensitive phosphorylation sites. […] Note that there are two biological replicate experiments for the rapamycin screen (“Table 11 Rapa Replicate 1,” and “Table 11 Rapa Replicate 2,” respectively) and one Ku-0063749 replicate (“Table 11 Ku”). Treatment for the light and heavy cells in each experiment is described in FIG. 1C. We observed a similar distribution for the phosphopeptides in the […] biological replicate experiment and found 85 proteins (Table 11) that carried rapamycin-sensitive phosphorylation sites.
# The analysis identified 4,484 and 6,832 unique phosphorylation sites on 1,615 and 1,866 proteins from two biological replicate experiments, respectively, and achieved a high level of accuracy in quantitation (Table 5). […] A representative identification of the known rapamycin-sensitive phosphorylation sites on ribosomal protein S6 is shown in FIG. 1B.
# TSC2−/− MEFs were used in the rapamycin screen due to constitutive hyperactivation of mTORC1 signaling in this cell line. Cells were grown in light ([^12C6^14N2]Lys, [^12C6^14N4]Arg) and heavy ([^13C6^15N2]Lys, [^13C6^15N4]Arg) DMEM (Cambridge Isotope Labs), respectively. Both light and heavy DMEM were supplemented with 10% dialyzed FBS (Invitrogen). Cells were serum-deprived for 17 hours and cells were cultured inheavy media were treated with 20 nM rapamycin for two hours. We performed two biological replicates of this experimental design with cross-labeling (swapping the labeled state of the rapamycin-treated cells).
# [1] = downregulated phosphorylation, TSC2−/− MEFs, 20 nM rapamycin 2 h vs DMSO, second biological replicate
smiles,measurement,setting,value
CO[C@H]1C[C@@H]2CC[C@@H](C)[C@@](O)(O2)C(=O)C(=O)N2CCCC[C@H]2C(=O)O[C@H]([C@H](C)C[C@@H]2CC[C@@H](O)[C@H](OC)C2)CC(=O)[C@H](C)/C=C(\C)[C@@H](O)[C@@H](OC)C(=O)[C@H](C)C[C@H](C)/C=C/C=C/C=C/1C [rapamycin],Log2 Area (H/L) Ratio,"Ahctf1 phosphopeptide NGVSLFNS*PKTEQPSPVVHSFPHPELPEAFVGTPISNTSQR, SEQ ID NO: 1120, rapamycin screen",1.0661
same,Log2 Area (H/L) Ratio,"Ahctf1 phosphopeptide NGVSLFNSPK@T*EQPSPVVHSFPHPELPEAFVGTPISNTSQR^, SEQ ID NO: 1119, rapamycin screen",1.0661
same,Log2 Area (H/L) Ratio,"Ahctf1 phosphopeptide NGVSLFNSPK@TEQPSPVVHS*FPHPELPEAFVGTPISNTSQR^, SEQ ID NO: 1121, rapamycin screen",1.0661
same,Log2 Area (H/L) Ratio,"Ahnak phosphopeptide S*NS*FSDERAEFSAPSTPTGTLEFAGGDAK@, SEQ ID NO: 1147, rapamycin screen",1.0143
same,Log2 Area (H/L) Ratio,"Ahnak phosphopeptide S*NS*FSDEREFSAPSTPTGTLEFAGGDAK, SEQ ID NO: 1148, rapamycin screen",1.0143
same,Log2 Area (H/L) Ratio,"Ahnak phosphopeptide S*NS*FSDEREFSAPSTPTGTLEFAGGDAK, SEQ ID NO: 1149, rapamycin screen",1.0143
same,Log2 Area (H/L) Ratio,"Arhgap17 phosphopeptide LGEQGPEPGPT*PPQT*PT*PPST*PPLAK, SEQ ID NO: 1124, rapamycin screen",1.0618
same,Log2 Area (H/L) Ratio,"Arid1a phosphopeptide GPS*PSPVGS*PASVAQSR^, SEQ ID NO: 1151, rapamycin screen",1.0107
same,Log2 Area (H/L) Ratio,"Atxn2 phosphopeptide TS*PAGGTWSSVVSGVPR, SEQ ID NO: 1157, rapamycin screen",1.0015
same,Log2 Area (H/L) Ratio,"Atxn2 phosphopeptide TS*PAGGTWSSVVSGVPR^, SEQ ID NO: 1156, rapamycin screen",1.0015
same,Log2 Area (H/L) Ratio,"Azi1 phosphopeptide ANNAGASIYPTGPADPCPPASES*S*PEQWQSPEDKPQDIHSQGEAR, SEQ ID NO: 1138, rapamycin screen",1.0268
same,Log2 Area (H/L) Ratio,"Dlg5 phosphopeptide SS*SHLDPAATPHSTLQGSSAGTPEHPSVIDPLMEQDEGPGTPPAK@, SEQ ID NO: 1129, rapamycin screen",1.0498
same,Log2 Area (H/L) Ratio,"Eif4ebp1 phosphopeptide NS*PVAK@T*PPK@DLPAIPGVTSPTSDEPPM#QASQSQLPSSPEDK@, SEQ ID NO: 1143, rapamycin screen",1.0227
same,Log2 Area (H/L) Ratio,"Eif4ebp1 phosphopeptide NS*PVAKT*PPKDLPAIPGVTSPT*SDEPPMQASQSQLPSS*PEDK, SEQ ID NO: 1150, rapamycin screen",1.0129
same,Log2 Area (H/L) Ratio,"Eif4ebp2 phosphopeptide TVAISDAAQLPQDYCTT*PGGTLFSTT*PGGTRIIYDR, SEQ ID NO: 1137, rapamycin screen",1.0271
same,Log2 Area (H/L) Ratio,"Eif4ebp2 phosphopeptide TVAISDAAQLPQDYCTT*PGGTLFSTT*PGGTR^IIYDR^, SEQ ID NO: 1136, rapamycin screen",1.0271
same,Log2 Area (H/L) Ratio,"Erbb2ip phosphopeptide VGS*EHSLLDPPGK, SEQ ID NO: 1135, rapamycin screen",1.0307
same,Log2 Area (H/L) Ratio,"Erf phosphopeptide FPPST*PSEVLS*PTEDPRS*PPACSSSSSSLFSAVVAR, SEQ ID NO: 1154, rapamycin screen",1.0039
same,Log2 Area (H/L) Ratio,"Fam129a phosphopeptide HNLFEDNM#ALPSESVSS*LTDLK, SEQ ID NO: 1142, rapamycin screen",1.0232
same,Log2 Area (H/L) Ratio,"Fam129a phosphopeptide HNLFEDNMALPSES*VSSLTDLK@TAMGS*NQAS*PAR^R^, SEQ ID NO: 1152, rapamycin screen",1.0048
same,Log2 Area (H/L) Ratio,"Fam129a phosphopeptide HNLFEDNMALPSESVSSLT*DLK@TAMGS*NQAS*PAR^R^, SEQ ID NO: 1153, rapamycin screen",1.0048
same,Log2 Area (H/L) Ratio,"Hells phosphopeptide S*INYSELDQFPSELEK, SEQ ID NO: 1132, rapamycin screen",1.0332
same,Log2 Area (H/L) Ratio,"Hells phosphopeptide S*INYSELDQFPSELEK@, SEQ ID NO: 1133, rapamycin screen",1.0332
same,Log2 Area (H/L) Ratio,"Hells phosphopeptide S*INYSELDQFPSELEK@, SEQ ID NO: 1134, rapamycin screen",1.0332
same,Log2 Area (H/L) Ratio,"Ncaph2 phosphopeptide NGS*PVPVPDIS*QEPDGPALSGGEEDAEDGAEPLEVALEPAEPR^, SEQ ID NO: 1127, rapamycin screen",1.0598
same,Log2 Area (H/L) Ratio,"Ncaph2 phosphopeptide NGS*PVPVPDISQEPDGPALS*GGEEDAEDGAEPLEVALEPAEPR, SEQ ID NO: 1126, rapamycin screen",1.0598
same,Log2 Area (H/L) Ratio,"Ncaph2 phosphopeptide NGS*PVPVPDISQEPDGPALS*GGEEDAEDGAEPLEVALEPAEPR^, SEQ ID NO: 1125, rapamycin screen",1.0598
same,Log2 Area (H/L) Ratio,"Pbx1 phosphopeptide TAVTATNVSAHGSQANS*PSTPNSAGGY*PSPCYQPDR^R^, SEQ ID NO: 1128, rapamycin screen",1.054
same,Log2 Area (H/L) Ratio,"Pds5b phosphopeptide AES*PETSAVESTQST*PQK, SEQ ID NO: 1141, rapamycin screen",1.0246
same,Log2 Area (H/L) Ratio,"Pds5b phosphopeptide AES*PETSAVESTQST*PQK@, SEQ ID NO: 1139, rapamycin screen",1.0246
same,Log2 Area (H/L) Ratio,"Pds5b phosphopeptide AES*PETSAVESTQST*PQK@, SEQ ID NO: 1140, rapamycin screen",1.0246
same,Log2 Area (H/L) Ratio,"Phldb1 phosphopeptide WAAHGTS*PEDFSLTLGAR^, SEQ ID NO: 1118, rapamycin screen",1.068
same,Log2 Area (H/L) Ratio,"Ranbp10 phosphopeptide SQDS*YPGS*PSLSPR, SEQ ID NO: 1161, rapamycin screen",1.0009
same,Log2 Area (H/L) Ratio,"Ranbp10 phosphopeptide SQDSYPGS*PSLS*PR, SEQ ID NO: 1158, rapamycin screen",1.0009
same,Log2 Area (H/L) Ratio,"Ranbp10 phosphopeptide SQDSYPGS*PSLS*PR^, SEQ ID NO: 1159, rapamycin screen",1.0009
same,Log2 Area (H/L) Ratio,"Ranbp10 phosphopeptide SQDSYPGS*PSLS*PR^, SEQ ID NO: 1160, rapamycin screen",1.0009
same,Log2 Area (H/L) Ratio,"Ranbp10 phosphopeptide SQDSYPGS*PSLS*PR^, SEQ ID NO: 1162, rapamycin screen",1.0009
same,Log2 Area (H/L) Ratio,"Rb1 phosphopeptide DGEGPDNLEPACPLSLPLQGNHTAADMYLS*PLRS*PK, SEQ ID NO: 1123, rapamycin screen",1.0618
same,Log2 Area (H/L) Ratio,"Rb1 phosphopeptide DGEGPDNLEPACPLSLPLQGNHTAADMYLS*PLR^S*PK@, SEQ ID NO: 1122, rapamycin screen",1.0618
same,Log2 Area (H/L) Ratio,"Samhd1 phosphopeptide CDGS*PR^T*PPS*TPPATANLSADDDFQNTDLR^, SEQ ID NO: 1155, rapamycin screen",1.0027
same,Log2 Area (H/L) Ratio,"Shroom2 phosphopeptide SRS*S*PSTDHYSQEVPVEPNR, SEQ ID NO: 1144, rapamycin screen",1.0176
same,Log2 Area (H/L) Ratio,"Shroom2 phosphopeptide SRS*S*PSTDHYSQEVPVEPNR, SEQ ID NO: 1145, rapamycin screen",1.0176
same,Log2 Area (H/L) Ratio,"Shroom2 phosphopeptide SR^S*S*PSTDHYSQEVPVEPNR^, SEQ ID NO: 1146, rapamycin screen",1.0176
same,Log2 Area (H/L) Ratio,"Tox4 phosphopeptide LSTTPS*PTNS*LHEDGVDDFRR, SEQ ID NO: 1130, rapamycin screen",1.0342
same,Log2 Area (H/L) Ratio,"Tox4 phosphopeptide LSTTPS*PTNS*LHEDGVDDFRR, SEQ ID NO: 1164, rapamycin screen",1.0005
same,Log2 Area (H/L) Ratio,"Tox4 phosphopeptide LSTTPS*PTNS*LHEDGVDDFR^R^, SEQ ID NO: 1131, rapamycin screen",1.0342
same,Log2 Area (H/L) Ratio,"Tox4 phosphopeptide LSTTPS*PTNS*LHEDGVDDFR^R^, SEQ ID NO: 1163, rapamycin screen",1.0005
same,"Median (treated/ctrl) fold-change of phosphopeptide Eif4ebp1 S64, T69",[1],2.8 fold
same,"Median (treated/ctrl) fold-change of phosphopeptide Eif4ebp2 S65, T70",[1],39.1 fold
same,"Median (treated/ctrl) fold-change of phosphopeptide Eif4ebp2 T37, T46",[1],2.3 fold
same,"Median (treated/ctrl) fold-change of phosphopeptide LSSLRAS*TS*KSES*S*QK, RPS6 S240, S242, S246, S247",[1],4.5 fold
same,"Median (treated/ctrl) fold-change of phosphopeptide MNILSS*QS*PLHPSTLNAVIHR, Grb10 S421, S423 (isoform 3; S501/S503 in isoform 1)",[1],more than 27 fold and 27.3 fold
same,"Median (treated/ctrl) fold-change of phosphopeptide RLS*S*LRASTSK, RPS6 S235, S236",[1],30.5 fold
same,"Median (treated/ctrl) fold-change of phosphopeptide Rps6kb1 S441, T444, S447",[1],2.8 fold
same,"Median (treated/ctrl) fold-change of phosphopeptide S*LPVSVPVWAFK, Akt1s1 S184",[1],2.2 fold
same,"Median (treated/ctrl) fold-change of phosphopeptide SFS*KEVEER, Eif4g1 S1189",[1],2.8 fold
same,"Median (treated/ctrl) fold-change of phosphopeptide SRT*GS*ESSQTGASATSGR, Eif4b T420, S422",[1],4.3 fold
same,"Median (treated/ctrl) fold-change of phosphopeptide TGS*ESS*QTGASATSGR, Eif4b S422, S425",[1],4.6 fold
same,"Median (treated/ctrl) fold-change of phosphopeptide TTS*FAESCKPVQQPSAFGSMK, Gsk3β S9",[1],approximately 3.3 fold and 3.3 fold
same,"Median (treated/ctrl) fold-change of phosphopeptide ULK1 S747, S757, T763",[1],4 fold and 4.1 fold
same,"Median (treated/ctrl) fold-change of triply phosphorylated Grb10 peptide T76, S96, S104",[1],5.4 fold
same,decrease of 4EBP1 T36/T45 phosphorylation after rapamycin treatment,rapamycin screen,20%
